The values that follow come from patent US10106833B2, “Methods and compounds for identifying glycosyltransferase inhibitors” (priority 2012, dated 2018).

The test system of test [1] is bacterial glycosyltransferase (E. coli PBP1b; E. faecalis PBP2a; S. aureus SgtB). As to the kind of experiment: Assay validation: displacement of probe compound from enzyme (fluorescence polarization). The class given is binding. The conditions noted are these: 75 nM probe S16; test compound up to ca. 200 uM. How it is done: (§1) To equilibrated solutions containing 10 mM TRIS (pH=8.0), 100 mM NaCl, 75 nM S16, and bacterial glycosyltransferase (E. coli PBP1b c=0.1-0.15 uM; E. faecalis PBP2a c=0.38-0.46 uM; S. aureus SgtB c=0.2-0.25 uM) was added the test compound in DMSO or DMSO/H2O solutions (stock solutions were typically 2 mM) to obtain a final concentration of test compound of ca. 200 uM. These solutions were serially diluted (1/1 dilutions) into buffer containing 10 mM TRIS (pH=8.0), 100 mM NaCl, 75 nM Probe CMG121, and bacterial glycosyl transferase (E. coli PBP1b c=0.1-0.15 uM; E. faecalis PBP2a c=0.38-0.46 uM; S. aureus SgtB c=0.2-0.25 uM). After equilibration at 0° C. for 30 min the 20 μL of the solutions were transferred to a black 384 well plate (Corning NBS Low Volume) and fluorescence polarization (FP, ex: 480 nm; em: 535 nm) was measured using a Perkin Elmer Envision microplate reader. Each series was performed in duplicate and the data was plotted FP vs. concentration of test compound.
(In general: Polarisation of emitted light reports the rotation of a fluorescent probe.)

Test [2] has as its target T1, E. coli PBP1b (Escherichia coli, UniProt P02919). As to the kind of experiment: Displacement of probe compound S16 (CMG121) from E. coli PBP1b, decrease in fluorescence polarization on addition of test compound. The class given is binding. The protocol: (§2) Solution containing 10 mM TRIS (pH=8.0), 100 mM NaCl, 0.3% DMSO, 75 nM S16, and bacterial glycosyltransferase (E. coli PBP1b c=2.2 uM; E. faecalis PBP2a c=5.1 uM; S. aureus SgtB c=2.1 uM) were allowed to equilibrate for 30 min at 0° C. and then serially diluted (1/1 dilutions) into buffer containing 10 mM TRIS (pH=8.0), 100 mM NaCl, 0.3% DMSO, and 75 nM S16. After equilibration at 0° C. for 30 min the 20 μL of the solutions were transferred to a black 384 well plate (Corning NBS Low Volume) and fluorescence polarization (FP, ex: 480 nm; em: 535 nm) was measured using a Perkin Elmer Envision microplate reader. Each series was performed in duplicate and the data was plotted FP vs. concentration of enzyme. For determination of the KD, the average FP values were converted to fluorescence anisotropy and fitted to the standard equation describing an equilibrium L+E<->LE (L=ligand; E=enzyme; LE=ligand enzyme complex) using GraphPad Prism 5.0 (GraphPad Software, Inc.; La Jolla, Calif., USA). The KD values for probe S16 are: E. coli PBP1b: 0.15; E. faecalis PBP2a: 0.38; […]
(§3) For determination of the Ki, the average FP values were first converted to fluorescence anisotropy.

The next test has as its target E. faecalis PBP2a (Enterococcus faecalis, UniProt Q837Z4). Kind of test: Displacement of probe compound S16 (CMG121) from E. faecalis PBP2a, decrease in fluorescence polarization on addition of test compound. The class given is binding. The conditions noted are these: read-out: E. faecalis PBP2a Kd; FIG. 2; FP displacement; 75 nM probe S16, 0.38-0.46 uM PBP2a, 10 mM TRIS pH 8.0, 100 mM NaCl, 0° C. 30 min. How it is done: as §2, §3

The target of test [3] is S. aureus SgtB (Staphylococcus aureus, UniProt Q99T05). As to the kind of experiment: Displacement of probe compound S16 (CMG121) from S. aureus SgtB, decrease in fluorescence polarization on addition of test compound. Format: binding. To be noted: read-out: S. aureus SgtB Kd; FIG. 2; FP displacement; 75 nM probe S16, 0.2-0.25 uM SgtB, 10 mM TRIS pH 8.0, 100 mM NaCl, 0° C. 30 min. The protocol: Solution containing 10 mM TRIS (pH=8.0), 100 mM NaCl, 0.3% DMSO, 75 nM S16, and bacterial glycosyltransferase (E. coli PBP1b c=2.2 uM; E. faecalis PBP2a c=5.1 uM; S. aureus SgtB c=2.1 uM) were allowed to equilibrate for 30 min at 0° C. and then serially diluted (1/1 dilutions) into buffer containing 10 mM TRIS (pH=8.0), 100 mM NaCl, 0.3% DMSO, and 75 nM S16. After equilibration at 0° C. for 30 min the 20 μL of the solutions were transferred to a black 384 well plate (Corning NBS Low Volume) and fluorescence polarization (FP, ex: 480 nm; em: 535 nm) was measured using a Perkin Elmer Envision microplate reader. Each series was performed in duplicate and the data was plotted FP vs. concentration of enzyme. For determination of the KD, the average FP values were converted to fluorescence anisotropy and fitted to the standard equation describing an equilibrium L+E<->LE (L=ligand; E=enzyme; LE=ligand enzyme complex) using GraphPad Prism 5.0 (GraphPad Software, Inc.; La Jolla, Calif., USA). The KD values for probe S16 are: E. coli PBP1b: 0.15; E. faecalis PBP2a: 0.38;
S. aureus SgtB: 0.18. Probe CMG121 (75 nM) is displaced from S. aureus SgtB (0.2 μM) by addition of either moenomycin or the weaker PGT inhibitor disaccharide S15, as evidenced by reduction of FP. […]
as §3

Test [4] addresses T2, S. aureus SgtB (Staphylococcus aureus, UniProt Q93Q23).
T2 sequence (Q93Q23 1-269): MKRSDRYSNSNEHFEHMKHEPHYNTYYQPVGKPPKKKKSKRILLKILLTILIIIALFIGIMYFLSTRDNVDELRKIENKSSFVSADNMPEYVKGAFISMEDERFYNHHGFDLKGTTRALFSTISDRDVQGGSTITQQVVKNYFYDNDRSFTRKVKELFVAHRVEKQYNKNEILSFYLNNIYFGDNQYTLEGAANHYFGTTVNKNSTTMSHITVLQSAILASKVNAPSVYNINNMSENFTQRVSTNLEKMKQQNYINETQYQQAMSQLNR
As to the kind of experiment: In vitro PGT inhibition, PG formation from 14C-lipid II. The class given is biochemical. The conditions noted are these: S. aureus SgtB 50 nM, lipid II 4 μM. How it is done:
(§4) A solutions of S. aureus SgtB (50 nM) in 12.5 mM HEPES (pH=7.5), 2 mM MnCl2, and 250 μM tween-80 (8 μL) were incubated with DMSO solutions containing the inhibitor of interest in different concentrations (1 μL) for 20 min. Then ^14C-labelled lipid II (1 μL, 40 μM, ^14C/^12C 1/3) was added and the polymerization reaction was allowed to proceed for 25 min at room temperature. The reaction was quenched with 10 μL of a solution of moenomycin (1 μM) in 10% triton-X reduced and the remaining lipid II was separated from peptidoglycan (PG) using paper strip chromatography (isobutyric acid/1M NH4OH 5/3). Using a scintillation counter the ratio of radioactivity in PG to total radioactivity was determined and plotted vs. inhibitor concentration. IC50s were determined using the curve fitting program GraphPad Prism 5.0 (GraphPad Software, Inc.; La Jolla, Calif., USA).

The target of test [5] is S. aureus SgtB. As to the kind of experiment: Fluorescence polarization probe competition (Ki). To be noted: probe CMG121 75 nM, S. aureus SgtB 0.2 μM; read-out: Ki (displacement of probe CMG121). The class given is binding. The protocol: as §1, with “Each series was performed in duplicate and the data was plotted FP vs. concentration of test compound.” left out
A black 384 well plate (Corning NBS Low Volume No. 3820) was filled (10 μL per well) with an equilibrated solution containing 10 mM TRIS (pH=8.0), 100 mM NaCl, 75 nM disaccharide S15, and 1.0-1.5 μM S. aureus SgtB (depending on protein batch). […] The plate was incubated at 4° C. for 30 min and read with an Perkin Elmer EnVision microplate reader as described above. […]
For determination of the Ki, the average FP values were first converted to fluorescence anisotropy. […]

The next test relates to Gram-positive organisms. To be noted: against Gram-positive organisms; cited from earlier work.
Test [6] deals with T1, E. coli PBP1b. As to the kind of experiment: In vitro PGT inhibition, PG formation from 14C-lipid II. The class given is biochemical. To be noted: E. coli PBP1b 50 nM, lipid II 4 μM. The protocol:
as §4
Solutions of the PGT (50 nM) in 50 mM HEPES (pH=7.5), 10 mM CaCl2, and […] PenG (8 μL) were incubated with DMSO solutions containing the inhibitor of interest in different concentrations (1 μL) for 20 min. Then ^14C-labelled lipid II (1 μL, 40 μM, ^14C/^12C 1/3) was added and the polymerization reaction was allowed to proceed for 25 min at room temperature. The reaction was quenched and processed as described above.

T1 sequence (P02919 whole entry): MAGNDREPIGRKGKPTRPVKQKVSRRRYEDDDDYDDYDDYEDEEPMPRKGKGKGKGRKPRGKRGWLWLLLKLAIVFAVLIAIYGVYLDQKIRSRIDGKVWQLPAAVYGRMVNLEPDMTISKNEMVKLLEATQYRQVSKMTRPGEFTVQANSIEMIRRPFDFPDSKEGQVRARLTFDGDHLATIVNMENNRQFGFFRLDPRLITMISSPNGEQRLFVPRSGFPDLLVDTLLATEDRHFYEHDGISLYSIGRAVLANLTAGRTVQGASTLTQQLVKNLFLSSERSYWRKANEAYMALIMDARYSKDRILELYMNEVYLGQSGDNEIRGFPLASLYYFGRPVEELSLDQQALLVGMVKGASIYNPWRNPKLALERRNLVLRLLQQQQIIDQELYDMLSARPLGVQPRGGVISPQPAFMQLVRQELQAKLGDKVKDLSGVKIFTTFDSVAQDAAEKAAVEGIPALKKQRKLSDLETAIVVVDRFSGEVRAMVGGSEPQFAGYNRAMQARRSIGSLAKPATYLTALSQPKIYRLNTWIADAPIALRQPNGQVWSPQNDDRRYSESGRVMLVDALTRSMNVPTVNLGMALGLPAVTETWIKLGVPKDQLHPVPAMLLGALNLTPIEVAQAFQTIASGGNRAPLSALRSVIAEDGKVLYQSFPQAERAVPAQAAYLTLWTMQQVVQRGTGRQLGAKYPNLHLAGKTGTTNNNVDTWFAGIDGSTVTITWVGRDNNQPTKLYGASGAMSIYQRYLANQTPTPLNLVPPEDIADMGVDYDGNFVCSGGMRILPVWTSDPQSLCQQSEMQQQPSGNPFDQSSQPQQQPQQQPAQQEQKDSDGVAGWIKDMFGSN
Sequence of E. faecalis PBP2a (Q837Z4 entry or part of it): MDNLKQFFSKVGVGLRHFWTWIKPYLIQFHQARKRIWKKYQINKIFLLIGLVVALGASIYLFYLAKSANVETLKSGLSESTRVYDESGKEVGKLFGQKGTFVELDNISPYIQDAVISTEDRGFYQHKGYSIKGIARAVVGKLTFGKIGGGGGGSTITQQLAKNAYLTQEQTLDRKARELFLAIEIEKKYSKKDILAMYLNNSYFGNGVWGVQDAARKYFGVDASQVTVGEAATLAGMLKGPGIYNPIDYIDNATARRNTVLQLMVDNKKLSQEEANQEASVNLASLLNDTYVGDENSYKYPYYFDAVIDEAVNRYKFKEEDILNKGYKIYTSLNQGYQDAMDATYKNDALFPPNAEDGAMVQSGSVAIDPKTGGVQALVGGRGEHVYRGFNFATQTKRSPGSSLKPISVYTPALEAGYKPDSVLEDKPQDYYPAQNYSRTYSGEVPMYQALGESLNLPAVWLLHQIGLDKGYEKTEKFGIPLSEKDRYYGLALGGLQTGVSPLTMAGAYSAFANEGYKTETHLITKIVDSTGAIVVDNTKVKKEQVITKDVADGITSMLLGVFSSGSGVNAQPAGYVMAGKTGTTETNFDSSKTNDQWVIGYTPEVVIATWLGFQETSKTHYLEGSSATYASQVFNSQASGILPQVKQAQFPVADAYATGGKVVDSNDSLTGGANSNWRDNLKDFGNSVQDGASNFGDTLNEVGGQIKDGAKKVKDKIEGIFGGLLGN

For the compound nC12-moenomycin A, in test [1], the “Displacement of the probe compound (change in fluorescence polarization) on addition of test compound” value is listed as “decrease in fluorescence polarization”.

With nC20-moenomycin A, the “Displacement of the probe compound (change in fluorescence polarization) on addition of test compound” value in test [1] was “decrease in fluorescence polarization”.

In the case of `CC(=O)N[C@H]1[C@H](O[C@H]2[C@H](O)[C@@H](NC(C)=O)[C@H](O[C@H]3[C@@H](OP(=O)(O)OC[C@@H](OC/C=C(/C)CCC=C(C)C)C(=O)O)O[C@H](C(N)=O)[C@@](C)(O)[C@@H]3OC(N)=O)O[C@@H]2CO[C@@H]2O[C@H](CO)[C@@H](O)[C@H](O)[C@H]2O)O[C@H](C)[C@@H](O[C@@H]2O[C@H](C(=O)NC3=C(O)CCC3=O)[C@H](O)[C@H](O)[C@H]2O)[C@@H]1O` [neryl-Moenomycin A (n-MmA), neryl-moenomycin A], on E. coli PBP1b [2] (FIG. 6, printed on the figure showing FP displacement of the probe by neryl-moenomycin A), the IC50 stood at 200 nM.

With `C=C(C/C=C(\C)CCC=C(C)C)CCC(C)(C)/C=C/CC/C(C)=C\CO[C@H](COP(=O)(O)O[C@H]1O[C@H](C(N)=O)[C@@](C)(O)[C@H](OC(N)=O)[C@H]1O[C@@H]1O[C@H](CO[C@@H]2O[C@H](CO)[C@@H](O)[C@H](O)[C@H]2O)[C@@H](O[C@@H]2O[C@H](C)[C@@H](O[C@@H]3O[C@H](C(=O)NC4=C(O)CCC4=O)[C@H](O)[C@H](O)[C@H]3O)[C@H](O)[C@H]2NC(C)=O)[C@H](O)[C@H]1NC(C)=O)C(=O)O` [Moenomycin A], the dissociation constant (Kd) on E. faecalis PBP2a worked out at 950 nM; on S. aureus SgtB [3], 1100 nM; at E. coli PBP1b [2] (read-out: E. coli PBP1b Kd, FIG. 2, FP displacement, 75 nM probe S16, 0.1-0.15 uM PBP1b, 10 mM TRIS pH 8.0, 100 mM NaCl, 0° C. 30 min), 3900 nM.

Consider `CCCCCCCCCCCCO[C@@H]1O[C@H](CO)[C@@H](O[C@H]2O[C@H](CO)[C@@H](O)[C@H](O)[C@H]2O)[C@H](O)[C@H]1O` [dodecyl-β-D-maltoside], for which the “Displacement of the probe compound (change in fluorescence polarization) on addition of test compound” value in test [1] is “does not displace”.

For the compound `C=C(C/C=C(\C)CCC=C(C)C)CCC(C)(C)/C=C/CC/C(C)=C\CO[C@H](COP(=O)(O)O[C@H]1O[C@H](C(N)=O)[C@@](C)(O)[C@H](OC(N)=O)[C@H]1O[C@@H]1O[C@H](CO[C@@H]2O[C@H](CO)[C@@H](O)[C@H](O)[C@H]2O)[C@@H](O[C@@H]2O[C@H](C)[C@@H](O[C@@H]3O[C@H](C(=O)NC4=C(O)CCC4=O)[C@H](O)[C@H](O)[C@H]3O)[C@H](O)[C@H]2NC(C)=O)[C@H](O)[C@H]1NC(C)=O)C(=O)O` [moenomycin A], the IC50 on S. aureus SgtB [4] was found to be 6 nM; at E. coli PBP1b [6], 12 nM. For the same compound, the Ki on S. aureus SgtB [5] was 640 nM. Further, in the test on Gram-positive organisms, the “Potency relative to vancomycin” value is on record as 10-1000 times. Also, the “Displacement of the probe compound (change in fluorescence polarization) on addition of test compound” value in test [1] is on record as “decrease in fluorescence polarization”.

Regarding `CCCCCCCCCCCCCC(=O)OC[C@H](COP(=O)(O)OCC(O)COP(=O)(O)OC[C@@H](COC(=O)CCCCCCCCCCCCC)OC(=O)CCCCCCCCCCCCC)OC(=O)CCCCCCCCCCCCC` (stereo partly drawn) [tetramystryl cardiolipin], the “Displacement of the probe compound (change in fluorescence polarization) on addition of test compound” value in test [1] is listed as “partial displacement”.

Regarding ZE-farnesyl-moenomycin A, the “Displacement of the probe compound (change in fluorescence polarization) on addition of test compound” value in test [1] is given as “decrease in fluorescence polarization”.

Consider `CC(=O)N[C@H]1[C@H](O[C@H]2[C@H](O)[C@@H](NC(C)=O)[C@H](O[C@H]3[C@@H](OP(=O)(O)OC[C@@H](OC/C=C(/C)CCC=C(C)C)C(=O)O)O[C@H](C(N)=O)[C@@](C)(O)[C@@H]3OC(N)=O)O[C@@H]2CO[C@@H]2O[C@H](CO)[C@@H](O)[C@H](O)[C@H]2O)O[C@H](C)[C@@H](O[C@@H]2O[C@H](C(=O)NC3=C(O)CCC3=O)[C@H](O)[C@H](O)[C@H]2O)[C@@H]1O` [neryl-moenomycin A], for which the “Displacement of the probe compound (change in fluorescence polarization) on addition of test compound” value in test [1] was “decrease in fluorescence polarization”.

In general, IC50 refers to the midpoint of a concentration-inhibition curve. As usually defined, the Kd is the constant that tells how readily two partners part at equilibrium. In general, Ki refers to a dissociation constant, usually derived from enzyme kinetics or from competition with a known ligand.
